Tested on: 926638-142-R-J1-PDC complex spheroid viability
Experiment: Anticancer human tumor 926638-142-R-J1-PDC patient-derived endometrial carcinoma cell line growth inhibition [POLQ]
Conditions: for IC50: curve of first compound; for viability, T/C: stronger effect = lower value
How it was run: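 Patient-derived tumour cells were co-cultured with HUVEC and mesenchymal stem cells as multicellular spheroids at 37 °C. They were treated with POLQ inhibitors (novobiocin, ART-558, RP6685) alone or combined with other agents. Top concentrations were at or near clinical Cmax (otherwise 10 microM; SN-38 at 1 microM), decreasing in half-log steps.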

[1] = second compound 0.0316 µM, first compound 0.00316 µM
[2] = second compound 0.0316 µM, first compound 0.01 µM
[3] = second compound 0.0316 µM, first compound 0.0316 µM
[4] = second compound 0.0316 µM, first compound 0.1 µM
[5] = second compound 0.0316 µM, first compound 0.316 µM
[6] = second compound 0.0316 µM, first compound 1 µM
[7] = second compound 0.1 µM, first compound 0.00316 µM
[8] = second compound 0.1 µM, first compound 0.01 µM
[9] = second compound 0.1 µM, first compound 0.0316 µM
[10] = second compound 0.1 µM, first compound 0.1 µM
[11] = second compound 0.1 µM, first compound 0.316 µM
[12] = second compound 0.1 µM, first compound 1 µM
[13] = second compound 0.316 µM, first compound 0.00316 µM
[14] = second compound 0.316 µM, first compound 0.01 µM
[15] = second compound 0.316 µM, first compound 0.0316 µM
[16] = second compound 0.316 µM, first compound 0.1 µM
[17] = second compound 0.316 µM, first compound 0.316 µM
[18] = second compound 0.316 µM, first compound 1 µM
[19] = second compound 1 µM, first compound 0.00316 µM
[20] = second compound 1 µM, first compound 0.01 µM
[21] = second compound 1 µM, first compound 0.0316 µM
[22] = second compound 1 µM, first compound 0.1 µM
[23] = second compound 1 µM, first compound 0.316 µM
[24] = second compound 1 µM, first compound 1 µM
[25] = second compound 3.16 µM, first compound 0.00316 µM
[26] = second compound 3.16 µM, first compound 0.01 µM
[27] = second compound 3.16 µM, first compound 0.0316 µM
[28] = second compound 3.16 µM, first compound 0.1 µM
[29] = second compound 3.16 µM, first compound 0.316 µM
[30] = second compound 3.16 µM, first compound 1 µM
[31] = second compound 10 µM, first compound 0.00316 µM
[32] = second compound 10 µM, first compound 0.01 µM
[33] = second compound 10 µM, first compound 0.0316 µM
[34] = second compound 10 µM, first compound 0.1 µM
[35] = second compound 10 µM, first compound 0.316 µM
[36] = second compound 10 µM, first compound 1 µM
[37] = second compound 0.0316 µM, first compound 3.16 µM
[38] = second compound 0.0316 µM, first compound 10 µM
[39] = second compound 0.1 µM, first compound 3.16 µM
[40] = second compound 0.1 µM, first compound 10 µM
[41] = second compound 0.316 µM, first compound 3.16 µM
[42] = second compound 0.316 µM, first compound 10 µM
[43] = second compound 1 µM, first compound 3.16 µM
[44] = second compound 1 µM, first compound 10 µM
[45] = second compound 3.16 µM, first compound 3.16 µM
[46] = second compound 3.16 µM, first compound 10 µM
[47] = second compound 10 µM, first compound 3.16 µM
[48] = second compound 10 µM, first compound 10 µM
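Note: spheroids exposed to drugs for one week before readout.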
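Throughout, for viability, T/C: percent viability relative to DMSO vehicle control wells set as 100%.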

CCc1c2c(nc3ccc(O)cc13)-c1cc3c(c(=O)n1C2)COC(=O)[C@]3(O)CC + COC1C(OC(N)=O)C(O)C(Oc2ccc3c(O)c(NC(=O)c4ccc(O)c(CC=C(C)C)c4)c(=O)oc3c2C)OC1(C)C
IC50 (second compound 0.0316 µM): 8.81 nM | IC50 (second compound 0.1 µM): 12.6 nM | IC50 (second compound 0.316 µM): 11.9 nM | IC50 (second compound 1 µM): 10.7 nM | IC50 (second compound 3.16 µM): 12.1 nM | IC50 (second compound 10 µM): 13.6 nM | viability, T/C [1]: 79.4% | viability, T/C [2]: 42% | viability, T/C [3]: 30.3% | viability, T/C [4]: 19.2% | viability, T/C [5]: 7.89% | viability, T/C [6]: 4.74% | viability, T/C [7]: 65.7% | viability, T/C [8]: 54.1% | viability, T/C [9]: 35.9% | viability, T/C [10]: 17.1% | viability, T/C [11]: 14.9% | viability, T/C [12]: 4.58% | viability, T/C [13]: 68.6% | viability, T/C [14]: 54% | viability, T/C [15]: 32% | viability, T/C [16]: 19.1% | viability, T/C [17]: 9.36% | viability, T/C [18]: 4.49% | viability, T/C [19]: 61.8% | viability, T/C [20]: 53.5% | viability, T/C [21]: 30.4% | viability, T/C [22]: 20.2% | viability, T/C [23]: 8.68% | viability, T/C [24]: 5.03% | viability, T/C [25]: 57.8% | viability, T/C [26]: 49.7% | viability, T/C [27]: 40.5% | viability, T/C [28]: 17.7% | viability, T/C [29]: 8.91% | viability, T/C [30]: 5.57% | viability, T/C [31]: 59.1% | viability, T/C [32]: 57.4% | viability, T/C [33]: 35.7% | viability, T/C [34]: 21.5% | viability, T/C [35]: 9.84% | viability, T/C [36]: 6.1%

C#Cc1c(F)ccc2cc(O)cc(-c3ncc4c(N5CC6CCC(C5)N6)nc(OCC56CCCN5CC(F)C6)nc4c3F)c12 (stereo not drawn) + Nc1ccc(C#CCN(C(=O)Cc2ncc(C(F)(F)F)cc2C(F)(F)F)c2ccc(F)cc2)nn1
IC50 (second compound 0.0316 µM): > 10000 nM | IC50 (second compound 0.1 µM): > 10000 nM | IC50 (second compound 0.316 µM): > 10000 nM | IC50 (second compound 1 µM): > 10000 nM | IC50 (second compound 3.16 µM): > 10000 nM | IC50 (second compound 10 µM): > 10000 nM | viability, T/C [3]: 97.8% | viability, T/C [4]: 95% | viability, T/C [5]: 83.7% | viability, T/C [6]: 80.1% | viability, T/C [37]: 71.8% | viability, T/C [38]: 64.5% | viability, T/C [9]: 125% | viability, T/C [10]: 83.2% | viability, T/C [11]: 79.1% | viability, T/C [12]: 82.2% | viability, T/C [39]: 75.9% | viability, T/C [40]: 71.2% | viability, T/C [15]: 84.4% | viability, T/C [16]: 101% | viability, T/C [17]: 84.2% | viability, T/C [18]: 76.7% | viability, T/C [41]: 79.8% | viability, T/C [42]: 59.3% | viability, T/C [21]: 105% | viability, T/C [22]: 101% | viability, T/C [23]: 89.4% | viability, T/C [24]: 85.6% | viability, T/C [43]: 81.2% | viability, T/C [44]: 59.2% | viability, T/C [27]: 88% | viability, T/C [28]: 93.4% | viability, T/C [29]: 74.2% | viability, T/C [30]: 87% | viability, T/C [45]: 80.3% | viability, T/C [46]: 66.3% | viability, T/C [33]: 99.1% | viability, T/C [34]: 78.2% | viability, T/C [35]: 80% | viability, T/C [36]: 70.7% | viability, T/C [47]: 79.3% | viability, T/C [48]: 53.1%

C=CCn1c(=O)c2cnc(Nc3ccc(N4CCN(C)CC4)cc3)nc2n1-c1cccc(C(C)(C)O)n1 + Nc1ccc(C#CCN(C(=O)Cc2ncc(C(F)(F)F)cc2C(F)(F)F)c2ccc(F)cc2)nn1
IC50 (second compound 0.0316 µM): 584 nM | IC50 (second compound 0.1 µM): 626 nM | IC50 (second compound 0.316 µM): 670 nM | IC50 (second compound 1 µM): 457 nM | IC50 (second compound 3.16 µM): 618 nM | IC50 (second compound 10 µM): 263 nM | viability, T/C [1]: 100% | viability, T/C [2]: 97.9% | viability, T/C [3]: 80.7% | viability, T/C [4]: 63% | viability, T/C [5]: 57.5% | viability, T/C [6]: 44.9% | viability, T/C [7]: 122% | viability, T/C [8]: 90.6% | viability, T/C [9]: 92.3% | viability, T/C [10]: 81.3% | viability, T/C [11]: 56.1% | viability, T/C [12]: 43.3% | viability, T/C [13]: 109% | viability, T/C [14]: 95.7% | viability, T/C [15]: 95% | viability, T/C [16]: 80.5% | viability, T/C [17]: 64.6% | viability, T/C [18]: 42% | viability, T/C [19]: 116% | viability, T/C [20]: 94.4% | viability, T/C [21]: 80.5% | viability, T/C [22]: 72.7% | viability, T/C [23]: 57.1% | viability, T/C [24]: 37.6% | viability, T/C [25]: 103% | viability, T/C [26]: 88.9% | viability, T/C [27]: 80% | viability, T/C [28]: 84.4% | viability, T/C [29]: 60.2% | viability, T/C [30]: 40.6% | viability, T/C [31]: 76.5% | viability, T/C [32]: 95.2% | viability, T/C [33]: 88.9% | viability, T/C [34]: 67.3% | viability, T/C [35]: 49.1% | viability, T/C [36]: 42.6%

CCCS(=O)(=O)Nc1ccc(F)c(C(=O)c2c[nH]c3ncc(-c4ccc(Cl)cc4)cc23)c1F + Cc1cccc(N(C)C(=O)C2C(O)CCN2c2nc(C)cc(C(F)(F)F)c2C#N)c1
IC50 (second compound 0.0316 µM): 9510 nM | IC50 (second compound 0.1 µM): > 10000 nM | IC50 (second compound 0.316 µM): > 10000 nM | IC50 (second compound 1 µM): > 10000 nM | IC50 (second compound 3.16 µM): 9330 nM | IC50 (second compound 10 µM): > 10000 nM | viability, T/C [3]: 110% | viability, T/C [4]: 95.8% | viability, T/C [5]: 97.4% | viability, T/C [6]: 103% | viability, T/C [37]: 102% | viability, T/C [38]: 47.6% | viability, T/C [9]: 117% | viability, T/C [10]: 103% | viability, T/C [11]: 96.2% | viability, T/C [12]: 96.9% | viability, T/C [39]: 86.4% | viability, T/C [40]: 58.2% | viability, T/C [15]: 114% | viability, T/C [16]: 123% | viability, T/C [17]: 94.2% | viability, T/C [18]: 97% | viability, T/C [41]: 80.4% | viability, T/C [42]: 55.1% | viability, T/C [21]: 95.1% | viability, T/C [22]: 99.4% | viability, T/C [23]: 89% | viability, T/C [24]: 110% | viability, T/C [43]: 86% | viability, T/C [44]: 49.8% | viability, T/C [27]: 104% | viability, T/C [28]: 114% | viability, T/C [29]: 87.1% | viability, T/C [30]: 88.9% | viability, T/C [45]: 94.7% | viability, T/C [46]: 46.7% | viability, T/C [33]: 97.7% | viability, T/C [34]: 94.1% | viability, T/C [35]: 77.1% | viability, T/C [36]: 76.4% | viability, T/C [47]: 89.4% | viability, T/C [48]: 56%
